Results on five compounds are retold here after patent publication US20030162792A1, “Indole derivatives useful for the treatment of CNS disorders” (H. Lundbeck A/S, priority 2000, published 2003).

One assay addresses T1, 5-HT2A receptors (Rattus norvegicus, UniProt P14842).
T1 construct: membranes from rat brain (cortex) in vitro; from tissue; host or cells: rat brain cortex membranes
As to the kind of experiment: Inhibition of the binding of [3H]Ketanserin to 5-HT2A receptors. On the procedure: Inhibition of the Binding of [^3H]Ketanserin to 5-HT2A Receptors
The compounds were tested with respect to their affinity for 5-HT2A receptors by determining their ability to inhibit the binding of [^3H]Ketanserin (0.50 nM) to membranes from rat brain (cortex) in vitro. Method described in Sanchez et al. Drug Dev. Res. 1991, 22, 239-250.

For assay [1], the target named is T2, human cloned dopamine D4.2 receptors expressed in CHO-cells (Homo sapiens, UniProt P21917, DEL265-296).
T2 construct: expressed in transfected cells; host or cells: CHO cells
T2 sequence (P21917 with tags, fused parts or gaps DEL265-296): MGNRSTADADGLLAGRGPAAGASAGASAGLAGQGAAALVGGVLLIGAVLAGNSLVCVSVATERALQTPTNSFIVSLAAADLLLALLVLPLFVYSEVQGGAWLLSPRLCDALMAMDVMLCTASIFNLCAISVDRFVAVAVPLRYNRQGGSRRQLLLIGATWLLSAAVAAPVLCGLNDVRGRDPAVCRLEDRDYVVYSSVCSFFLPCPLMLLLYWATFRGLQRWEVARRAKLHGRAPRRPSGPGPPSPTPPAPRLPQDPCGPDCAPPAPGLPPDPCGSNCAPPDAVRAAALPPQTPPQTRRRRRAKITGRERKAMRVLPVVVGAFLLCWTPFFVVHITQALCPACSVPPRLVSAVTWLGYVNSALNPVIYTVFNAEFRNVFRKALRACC
As to the kind of experiment: Inhibition of the binding of [3H]YM-09151-2 to human dopamine D4.2 receptors. As to conditions: for D4-bind. % inhibition of binding: at 50 nM. The text has this: Method modified from NEN Life Science Products, Inc., technical data certificate PC2533-10/96.

The next assay addresses T3, D4 receptor (Homo sapiens, UniProt P21917).
T3 sequence (P21917 1-419): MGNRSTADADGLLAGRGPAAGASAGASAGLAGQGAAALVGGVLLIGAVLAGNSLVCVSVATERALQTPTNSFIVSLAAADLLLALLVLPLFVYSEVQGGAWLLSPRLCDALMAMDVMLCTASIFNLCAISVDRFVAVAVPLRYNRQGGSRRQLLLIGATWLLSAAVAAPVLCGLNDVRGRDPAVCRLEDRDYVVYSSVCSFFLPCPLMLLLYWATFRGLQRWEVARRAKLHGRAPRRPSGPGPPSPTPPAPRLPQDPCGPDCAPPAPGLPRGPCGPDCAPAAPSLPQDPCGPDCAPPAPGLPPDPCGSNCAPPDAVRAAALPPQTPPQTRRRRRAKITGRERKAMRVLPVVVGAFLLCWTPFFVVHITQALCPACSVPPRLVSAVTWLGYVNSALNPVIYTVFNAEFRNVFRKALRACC
As to conditions: various in vitro efficacy assays; cited from earlier work.

[2] abbreviates: [3H]Ketanserin 0.50 nM, membranes from rat brain (cortex), read-out: 5-HT2A-bind. IC50.

Counter-ions that a name gives are not always drawn. Like-named read-outs stand apart in the source and are kept apart here.

T1 sequence (P14842 whole entry): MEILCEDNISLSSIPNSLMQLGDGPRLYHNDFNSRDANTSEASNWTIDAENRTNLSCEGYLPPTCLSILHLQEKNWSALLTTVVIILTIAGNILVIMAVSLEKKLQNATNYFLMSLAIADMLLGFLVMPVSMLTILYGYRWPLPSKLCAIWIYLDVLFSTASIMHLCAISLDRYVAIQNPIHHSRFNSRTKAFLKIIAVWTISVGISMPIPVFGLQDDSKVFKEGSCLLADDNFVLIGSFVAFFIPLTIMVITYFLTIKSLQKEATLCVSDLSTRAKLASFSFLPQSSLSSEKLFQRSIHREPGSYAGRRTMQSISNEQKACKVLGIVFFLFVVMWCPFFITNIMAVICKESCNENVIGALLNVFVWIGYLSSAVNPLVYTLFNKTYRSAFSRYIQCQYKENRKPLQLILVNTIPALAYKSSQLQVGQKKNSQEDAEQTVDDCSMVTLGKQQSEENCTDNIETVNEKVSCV

By IC50 is commonly meant the concentration needed to halve the response being measured. Take `Cl.O=S1(=O)c2cccc3cccc(c23)N1CCCN1CCN(c2ccc3cc[nH]c3c2)CC1` [Compound 1b, 2-{3-[4-(1H-Indol-6-yl)piperazin-1-yl]propan-1-yl}-2H-naphtho[1,8-cd]isothiazole 1,1-dioxide, Hydrochloride]: the IC50 at 5-HT2A receptors (setting [2]) came out at 1.8 nM. The “D4-bind. % inhibition of binding” value in assay [1] ([3H]YM-09151-2 0.06 nM) is given as 91% (50 nM). Consider `O=S1(=O)c2cccc3cccc(c23)N1CCCN1CCN(c2ccc3[nH]ccc3c2)CC1` [Compound 1a, 2-{3-[4-(1H-Indol-5-yl)piperazin-1-yl]propan-1-yl}-2H-naphtho[1,8-cd]isothiazole 1,1-dioxide, Hydrochloride], for which the half-maximal inhibitory concentration (IC50) at 5-HT2A receptors (setting [2]) was determined as 0.79 nM; in assay [1] ([3H]YM-09151-2 0.06 nM, membranes of CHO cells, read-out: D4-bind. IC50) it was 1.9 nM.

Consider `O=S1(=O)c2cccc3cccc(c23)N1CCCN1CCC(c2ccc3[nH]ccc3c2)CC1` [Compound 1d, Hydrochloride], for which the half-maximal inhibitory concentration (IC50) on 5-HT2A receptors (setting [2]) stood at 9.2 nM. Further, in assay [1] ([3H]YM-09151-2 0.06 nM), the “D4-bind. % inhibition of binding” value is listed as 83% (50 nM).

As to `O=S1(=O)c2cccc3cccc(c23)N1CCCN1CC=C(c2ccc3[nH]ccc3c2)CC1` [Compound 1c, 2-{3-[4-(1H-Indol-5-yl)-3,6-dihydro-2H-pyridin-1-yl]propan-1-yl}-2H-naphtho[1,8-cd]isothiazole 1,1-dioxide, Hydrochloride], the figures for the half-inhibitory concentration (IC50) (at 5-HT2A receptors; in assay [1]) were 0.48 nM and 0.73 nM, respectively. For the compound `CC(C)Oc1cccnc1N(C)C1CCN(Cc2ccccc2)CC1` [Compound U-101958], on D4 receptor, the “Functional activity at D4 receptor (literature)” value is listed as “partial D4 receptor agonists”.
